This is an account of results in US9475773B2, “NK3 receptor antagonist compound (NK3RA) for use in a method for the treatment of polycystic ovary syndrome (PCOS)” (ASTRAZENECA AB, priority 2013, dated 2016).

Data set [1] can be described thus: Pharmacokinetics and metabolism in dogs. It counts as in vivo. Conditions: dog. The protocol:
(§1) At low doses, the estimated Clp of The NK3RA was moderate in rat (8.3 ml/min/kg) and low in the dog (1.2 ml/min/kg). Bioavailability (F) was ˜100% in both species indicating extensive absorption in these species. The volume of distribution (Vz) was moderate (1.6 L·kg in rat and 0.81 L/kg in dog) and consistent with the physico-chemical properties of the compound. […] The NK3RA exposure decreased after multiple dosing in rats, indicating either changes in absorption or induction of The NK3RA metabolism, or both, after multiple dosing. […] T1/2 values ranged from 5.6 hours to 14.3 hours at the end of dosing for dogs dosed at 1000 mg/kg/day (2180 μmol/kg/day). There were no consistent sex differences observed in the exposure to NK3RA in these 2 species.
(§2) Following oral administration of The NK3RA in the rat, a pharmacologically active ketone metabolite appeared rapidly in plasma but slowly reached maximum concentration levels in all animals. […] T1/2 values ranged from 8.51 hours to 13.8 hours on Day 27 and Day 28 for dogs dosed with 1000 mg/kg/day (2180 μmol/kg/day) of the NK3RA. There were no consistent sex differences observed in the exposure to the metabolite in these 2 species.

For data set [2], the system named is dogs. The data set is described as follows: Dog electrocardiographic (ECG) telemetry study. It counts as in vivo.
The target in data set [3] is T1, NK2 (Homo sapiens, UniProt P21452).
T1 sequence (P21452 1-398): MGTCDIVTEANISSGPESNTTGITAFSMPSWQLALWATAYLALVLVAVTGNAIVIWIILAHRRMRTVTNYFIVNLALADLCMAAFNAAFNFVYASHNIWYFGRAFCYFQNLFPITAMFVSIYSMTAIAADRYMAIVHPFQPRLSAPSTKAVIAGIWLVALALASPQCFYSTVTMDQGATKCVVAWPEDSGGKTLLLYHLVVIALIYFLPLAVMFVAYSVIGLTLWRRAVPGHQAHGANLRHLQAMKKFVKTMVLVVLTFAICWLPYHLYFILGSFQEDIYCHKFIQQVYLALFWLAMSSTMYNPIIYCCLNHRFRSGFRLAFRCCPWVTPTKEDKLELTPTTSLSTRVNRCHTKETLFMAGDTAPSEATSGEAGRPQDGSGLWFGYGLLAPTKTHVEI
The data set is described as follows: Specificity over other tachykinin receptors (NK2). The class given is binding.

Data set [4] deals with rats. The data set is described as follows: Respiratory parameters in rats. It counts as in vivo, rat. Conditions: up to 2000 mg/kg (4400 μmol/kg).
Data set [5] addresses T2, NK3 receptor (Homo sapiens, UniProt P29371).
T2 sequence (P29371 1-465): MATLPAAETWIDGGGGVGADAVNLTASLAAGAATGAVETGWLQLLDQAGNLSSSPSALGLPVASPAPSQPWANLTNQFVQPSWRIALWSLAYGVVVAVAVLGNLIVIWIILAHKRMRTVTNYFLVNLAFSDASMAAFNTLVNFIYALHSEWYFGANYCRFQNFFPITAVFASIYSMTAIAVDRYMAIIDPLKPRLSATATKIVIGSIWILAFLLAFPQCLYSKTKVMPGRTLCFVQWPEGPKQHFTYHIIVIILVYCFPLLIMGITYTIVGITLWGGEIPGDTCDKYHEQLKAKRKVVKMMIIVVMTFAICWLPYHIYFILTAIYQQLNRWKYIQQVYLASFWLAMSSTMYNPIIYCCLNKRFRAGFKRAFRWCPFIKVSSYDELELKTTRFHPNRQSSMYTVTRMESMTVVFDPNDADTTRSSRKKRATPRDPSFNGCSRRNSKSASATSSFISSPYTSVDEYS
The experiment in a line: In vitro target engagement. Conditions: n=12. The class given is binding.

A short description of data set [6]: Pharmacokinetics and metabolism in rats. It counts as in vivo, rat. The protocol: as §1, §2

On to `CC[C@H](NC(=O)c1c(NS(C)(=O)=O)c(-c2ccccc2)nc2ccccc12)c1ccccc1` [NK3RA, 3-(methanesulfonamido)-2-phenyl-N-[(1S)-1-phenylpropyl]quinoline-4-carboxamide], for which, in data set [1], the “accumulation after 28-day repeat dosing regimen” value is listed as “no accumulation or reduction”. The rate of absorption result is “more rapidly absorbed” in data set [1] (oral administration) and “absorbed at a moderate rate” in data set [6] (rat, oral administration). In addition, the half-life in data set [1] (plasma, oral, dogs dosed at 1000 mg/kg/day (2180 μmol/kg/day), read-out: T1/2 at the end of dosing) was 5.6 to 14.3 h; in data set [1] (plasma, read-out: elimination half-life (T½) (converted)) it was 9.5 h; in data set [6] (rat, plasma, read-out: elimination half-life (T½) (converted)) it was 3.2 h. The bioavailability in data set [1] (plasma, oral, read-out: Bioavailability (F)) was around 100%; in data set [6] (rat, plasma, oral, read-out: Bioavailability (F)), around 100%. For the same molecule, in data set [1] (plasma, read-out: volume of distribution (Vz)), the Vd worked out at 0.81 L/kg. Further, the clearance in data set [1] (plasma, low doses, estimated, read-out: Clp) is 1.2 mL/min/kg; in data set [6] (plasma, rat, low doses, estimated, read-out: Clp), 8.3 mL/min/kg. Moreover, in data set [2], the “effect on blood pressure” value was “no effect”. Also, the “other ECG parameters including QTc interval duration” value in data set [2] is recorded as “No other ECG parameter, including QTc interval duration, was affected”. The “reduction in heart rate” value in data set [2] (highest dose tested 2000 mg/kg orally, transient, dose-related) is “up to 29%”. For the same molecule, the “specificity for NK3 over NK2” value in data set [3] is reported as above 800 fold. The respiratory parameters result in data set [4] was “did not affect any respiratory parameters”. In data set [5], this molecule displayed a 50% inhibitory concentration (IC50) of 2.24 ± 0.57 nM. The molecule further returned a volume of distribution (Vz) in data set [6] (rat) of 1.6 L/kg. Further, the “exposure after multiple dosing” value in data set [6] (rats) is reported as “decreased”.

By bioavailability is commonly meant dose-corrected exposure relative to a reference, in per cent. By IC50 is commonly meant the concentration that gives 50% inhibition. A higher IC50 goes with lower potency.
